{
  "source": "paper PMC11801377",
  "about": "“A uniquely efficacious type of CFTR corrector with complementary mode of action” (Science Advances, 2024)",
  "key": {"G551D-CFTR": {"biological_target": "T1, G551D-CFTR (Homo sapiens, UniProt P13569, G551D)", "T1 construct": "expressed in transfected cells; host or cells: T-REx HEK293, also transduced with halide-sensitive YFP", "T1 sequence (P13569 whole entry G551D)": "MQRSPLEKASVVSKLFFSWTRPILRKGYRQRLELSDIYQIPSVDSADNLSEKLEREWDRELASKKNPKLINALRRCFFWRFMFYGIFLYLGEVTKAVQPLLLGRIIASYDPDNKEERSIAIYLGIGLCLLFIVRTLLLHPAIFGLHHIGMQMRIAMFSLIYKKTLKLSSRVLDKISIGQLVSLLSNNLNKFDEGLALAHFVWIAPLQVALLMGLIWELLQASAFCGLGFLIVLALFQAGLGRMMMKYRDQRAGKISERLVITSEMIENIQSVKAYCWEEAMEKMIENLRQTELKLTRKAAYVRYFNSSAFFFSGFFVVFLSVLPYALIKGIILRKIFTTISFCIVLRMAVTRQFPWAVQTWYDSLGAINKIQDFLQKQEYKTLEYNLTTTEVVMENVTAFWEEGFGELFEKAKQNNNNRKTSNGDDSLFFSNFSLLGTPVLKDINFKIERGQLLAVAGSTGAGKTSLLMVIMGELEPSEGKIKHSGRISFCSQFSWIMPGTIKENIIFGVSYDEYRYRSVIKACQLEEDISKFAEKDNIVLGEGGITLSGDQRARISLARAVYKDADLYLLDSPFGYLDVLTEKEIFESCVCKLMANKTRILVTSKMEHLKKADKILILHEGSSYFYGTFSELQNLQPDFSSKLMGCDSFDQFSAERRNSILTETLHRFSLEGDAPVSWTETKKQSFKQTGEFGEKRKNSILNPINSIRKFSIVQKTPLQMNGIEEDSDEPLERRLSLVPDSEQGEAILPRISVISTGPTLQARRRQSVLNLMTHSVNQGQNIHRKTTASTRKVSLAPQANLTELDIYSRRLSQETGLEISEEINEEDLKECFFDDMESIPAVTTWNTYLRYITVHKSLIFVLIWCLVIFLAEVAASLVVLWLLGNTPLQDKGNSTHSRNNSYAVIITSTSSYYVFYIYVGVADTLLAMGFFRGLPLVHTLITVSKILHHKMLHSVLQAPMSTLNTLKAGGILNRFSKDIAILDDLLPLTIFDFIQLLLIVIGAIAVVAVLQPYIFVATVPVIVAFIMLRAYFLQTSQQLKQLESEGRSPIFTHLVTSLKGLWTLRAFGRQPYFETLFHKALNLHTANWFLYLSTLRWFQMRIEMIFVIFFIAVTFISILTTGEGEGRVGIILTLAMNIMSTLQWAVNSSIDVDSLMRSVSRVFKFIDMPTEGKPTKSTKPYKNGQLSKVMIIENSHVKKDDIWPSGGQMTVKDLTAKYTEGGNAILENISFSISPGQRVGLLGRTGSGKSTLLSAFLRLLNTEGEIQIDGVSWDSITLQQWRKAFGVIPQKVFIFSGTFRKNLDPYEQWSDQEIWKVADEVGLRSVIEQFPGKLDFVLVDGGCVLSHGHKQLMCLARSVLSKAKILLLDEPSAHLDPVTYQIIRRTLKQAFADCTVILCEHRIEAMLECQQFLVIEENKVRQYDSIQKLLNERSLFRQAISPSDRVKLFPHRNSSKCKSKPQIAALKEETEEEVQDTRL", "assay": "YFP quenching copotentiation assay in HEK-G551D-CFTR cells (acute treatment)", "assay_type": "cell-based", "conditions": "HEK293 cells, 10 min incubation", "excerpt": "(§1) The human CFTR expressing HEK cell pools with the mutations described below were generated by integrase-mediated homologous recombination of the CFTR sequence into the T-REx HEK293 background (Thermo Fisher Scientific). This expression system allows the tetracycline-inducible expression of genes of interest from one defined insertion site. Parental T-REx-HEK293 cells were cultivated in growth medium: Dulbecco’s modified Eagle’s medium + GlutaMAX-I (#31966, Life Technologies), 10% dialyzed FBS (Gibco, #26400), penicillin (100 U/ml), streptomycin (100 μg/ml), hygromycin B (0.1 mg/ml; Life Technologies), blasticidin (5 μg/ml; Invitrogen, #R210-01), and 0.1 mM nonessential amino acid solution (Invitrogen, #11140-035). Recombinant T-REx-HEK-CFTR cells were generated by lipofectamine transfection (Life Technologies) of plasmids containing mutated versions of CFTR (RefSeq NM_000492) and then cultivated in selection medium [growth medium containing Geneticin (1 mg/ml) (Invitrogen, #10131-027) instead of hygromycin]. The plasmid constructs were synthetized by GENEART (Thermo Fisher Scientific) and designed with the WT CFTR intron 5 to 6 (880 nucleotides) to prevent leaky expression issues during the cloning process in bacteria. […]"}, "[1]": {"test_system": "10 most frequent CF-causing CFTR folding mutations", "assay": "CFTR correction (immunoblotting) in HEK-TREx cells expressing CF-causing CFTR folding mutations", "assay_type": "cell-based, human", "conditions": "many mutants", "excerpt": "as §1"}},
  "data": [
    {"smiles": "Cc1nn(C)cc1S(=O)(=O)NC(=O)c1ccc(-n2ccc(OCC(C)(C)C(F)(F)F)n2)nc1N1C[C@@H](C)CC1(C)C", "note": "[ELX, elexacaftor]", "values": [
      {"measurement": "acute effect on IVA activity at G551D-CFTR", "setting": "G551D-CFTR", "result": "copotentiation of IVA activity"},
      {"measurement": "correction by stand-alone treatment", "setting": "[1]", "result": "no/little correction"}
    ]},
    {"smiles": "COc1cc(CCNC(=O)C2CC(=O)N(C)C(CC(C)C)C(=O)N3CCCCC3C(=O)NC(Cc3ccccc3)COc3ccc4ncc(F)cc4c3C(=O)N2)on1", "note": "(stereo not shown) [IDOR-3]", "values": [
      {"measurement": "acute effect on IVA activity at G551D-CFTR", "setting": "G551D-CFTR", "result": "copotentiation of IVA activity"}
    ]},
    {"smiles": "CC(C)(CO)c1cc2cc(NC(=O)C3(c4ccc5c(c4)OC(F)(F)O5)CC3)c(F)cc2n1C[C@@H](O)CO", "note": "[TEZ, tezacaftor]", "values": [
      {"measurement": "correction by stand-alone treatment", "setting": "[1]", "result": "no/little correction"}
    ]}
  ]
}
